The nature of the data set: Solubility of guanidine compounds in water, OECD Guideline 105 flask method. The class given is physicochemical.

≈ marks a conversion by molar mass, not a printed value.

As for `Cc1ccccc1NC(=N)NC(=N)N` [o-Tolylbiguanide], the Solubility in water came out at 15 mM (≈ 2870 µg/mL).

One may read the solubility as how much of the substance goes into solution per volume. Read a low solubility as a poorly soluble substance. For the setting “water, thermodynamic from solid”, `N=C(N)NN` [aminoguanidine] had a solubility of 50 mM (≈ 3700 µg/mL).

(Values after patent US20140017893A1, “CMP POLISHING LIQUID AND METHOD FOR POLISHING SUBSTRATE USING THE SAME” (Hitachi Chemical Company, Ltd., priority 2007, published 2014).)
